Measured values published in patent US20130065818A1, “Arylamide Compounds And Compositions And Uses Thereof” (POLYMEDIX, priority 2006, published 2013).
Where “and” joins values, the source holds several entries; their conditions need not be identical. Identical values can stand only once.

How the values were obtained:
[1] = system: fluoroquinolone-resistant, methicillin-resistant Staphylococcus aureus (K950); assay: NZW rabbit keratitis model, corneal colony counts; type: in vivo; conditions: Example 11; for Log10 CFU/ml, Mean / Log10 CFU/ml, Median: count 3; for Log10 CFU/ml / CFU/ml: individual cornea; for CFU/ml: Inoculum = 1098 CFU/cornea
Description: (§1) One purpose of the following experiments was to compare the efficacy of 1% Oligomer 2, 0.5% Oligomer 2, and 5% vancomycin in the treatment of a fluoroquinolone-resistant, methicillin-resistant Staphylococcus aureus infection in the NZW rabbit keratitis model with or without intact corneal epithelia.
Nothing was done to the right eyes.
as §1, with “0.25%” for “1%”, “with and without 0.005% benzalkonium chloride,” for “0.5% Oligomer 2,”, “epithelia. The 0.005% benzalkonium chloride has been added to try to increase the penetration of 0.25% Oligomer 2 through the corneal epithelium.” for “epithelia.”
One purpose of the following experiments was to determine the efficacy of 0.25% Oligomer 4, with and without 200 μM Farnesol, and 200 μM Farnesol in the treatment of a fluoroquinolone-resistant and methicillin-resistant Staphylococcus aureus infection in the NZW rabbit keratitis model with or without intact corneal epithelia. The 200 μM Farnesol has been added to try to increase the efficacy and penetration of 0.25% Oligomer 4 through the corneal epithelium.

[2] = NZW rabbit keratitis model, clinical evaluation (Total Ocular Score); conditions: for Chemosis / Conj. / Corneal Edema / Corneal Infiltrate / Discharge / Iritis / Total Score: Example 11, Oligomer 4 / Farnesol study; for Chemosis / Conj. / Corneal Edema / Corneal Infiltrate / Discharge / Iritis / Total Score / Total Ocular Score: individual eye; for Total Ocular Score: Example 12 data display
Method: Fifteen rabbits were received from Myrtles' Rabbitry, Thompson Station, TN. The clinical isolate of fluoroquinolone-resistant, methicillin-resistant (MRSA) Staphylococcus aureus (K950) was subcultured on 5% sheep blood agar and incubated at 37° C. in 6% CO2 overnight. The next morning, the MRSA strain was suspended in sterile trypticase soy broth to a 0.5 McFarland Standard, containing approximately 5×10^8 cfu/ml of bacteria. The absorbance of the suspension was measured at 650 nm using a Beckman DU-70 spectrophotometer. OD readings of 0.07 corresponded to 5×10^8 cfu/ml of bacteria. This concentration was appropriately diluted in sterile trypticase soy broth to provide the inoculum of approximately 1,000 (1.0×10^3) cfu/eye in 25 μl. Colony counts were performed on the inoculum to determine the actual cfu inoculated. Following general anesthesia with ketamine and xylazine and topical anesthesia with proparacaine and prior to bacterial inoculation in the left eyes, 6 mm areas of the corneal epithelia was removed centrally with an Amoils epithelial scrubber. Nothing was done to the right eyes. The 15 rabbits were then inoculated intrastromally in both eyes with 25 μl of the bacterial dilution of approximately 10^3 cfu/eye of the bacteria. The bacterial inoculation of the left eyes was directly under the epithelial defect created by the Amoils epithelial scrubber. The epithelia were removed in the left corneas in order to determine whether this layer of the cornea is a barrier for Oligomer 2 penetration when compared to the right cornea with an intact epithelium. A colony count was done on the inoculum to determine the actual cfu inoculated. The rabbits were immediately treated with analgesia in the form of and intramuscular injection of ketoprofen, 1.5 mg/kg. After 4 hours, the 15 rabbits were divided into 4 treatment groups and one untreated control group sacrificed at the onset of therapy. Both eyes of each rabbit of the treatment groups were treated with one 37 μl drop of the coded solutions or control Saline or 1 drop of vancomycin from its dropper bottle. The Oligomer 2 concentrations were masked and labeled as 1 and 2. The masked concentrations were 1% Oligomer 2 and 0.5% Oligomer 2 but the specific concentrations of solutions were not known to the lab workers who carried out the experiment. The vancomycin and control (Tris-Buffered Saline) were not masked.
Treatment was scheduled for every 15 minutes for 5 hours (21 total doses). However, PMX-1 and PMX-2 were exhausted after the 19th dose. Therefore, the actual treatment was 15 minutes for 4.5 hours (19 total doses). The 3 rabbits in group V were sacrificed 4 hours PI and large 9.5 mm buttons were removed from the corneas. These were placed in 1 ml of PBS and kept on ice. The corneal buttons were homogenized for 25 seconds on ice using the motorized homogenizer. After homogenization, colony counts were done on the homogenates using 5% sheep blood agar plates to determine the amount of bacteria contained in the corneas at the onset of therapy. Following the completion of therapy, the eyes were examined for clinical signs of infection. One hour after the final treatment, the treated rabbits (Groups I-IV) were sacrificed and large 9.5 mm buttons were removed from the corneas. These were placed in 1 ml of PBS and kept on ice. The corneal buttons were homogenized for 25 seconds on ice using the motorized homogenizer. After homogenization, colony counts were performed on the homogenates using 5% sheep blood agar plates to determine the amount of bacteria contained in the corneas after treatment. The next morning, the plates were counted and the number of cfu/eye of Staphylococcus aureus was determined for each cornea.
Fifteen rabbits were received from Myrtles' Rabbitry, Thompson Station, TN.

[3] = Example 11, abraded epithelium, count 3
[4] = Example 12, Ker-3 and Ker-4 combined, abraded epithelium, count 6
[5] = Example 11, intact epithelium, count 3
[6] = Example 12, Ker-3 and Ker-4 combined, intact epithelium, count 6

## CC(C)=CCCC(C)=CCCC(C)=CCO [FARN-AE]
[1]; abraded epithelium
  Log10 CFU/ml, Mean: 6.8762 Log10 CFU/ml
  Log10 CFU/ml, Median: 6.8893 Log10 CFU/ml
  Log10 CFU/ml: 6.889 Log10 CFU/ml and 6.823 Log10 CFU/ml and 6.916 Log10 CFU/ml
  CFU/ml: 7750000 CFU/ml and 6650000 CFU/ml and 8250000 CFU/ml
[2]; abraded epithelium
  Chemosis: 2.0 and 1.5 (2×)
  Conj.: 2.0 and 1.5 (2×)
  Corneal Edema: 2.0 and 1.0 (2×)
  Corneal Infiltrate: 1.0 (2×) and 0.5
  Discharge: 2.0 and 1.5 (2×)
  Iritis: 2.0 and 1.5 (2×)
  Total Score: 11.0 and 7.5 and 8.0
[2]; [3]
  Total Ocular Score, Mean: 8.83
  Total Ocular Score, Median: 8.00
[2]; [4]
  Total Ocular Score, Mean: 9.083
  Total Ocular Score, Median: 8.500
[2]; Ker-3, abraded epithelium
  Total Ocular Score: 11.0 and 8.5 (2×)
[2]; Ker-4, abraded epithelium
  Total Ocular Score: 11.0 and 7.5 and 8.0

## CC(C)=CCCC(C)=CCCC(C)=CCO [FARN-IE]
[1]; intact epithelium
  Log10 CFU/ml, Mean: 7.418 Log10 CFU/ml
  Log10 CFU/ml, Median: 7.330 Log10 CFU/ml and 7.3304 Log10 CFU/ml
  Log10 CFU/ml: 7.655 Log10 CFU/ml and 7.27 Log10 CFU/ml and 7.33 Log10 CFU/ml
  CFU/ml: 45200000 CFU/ml and 18600000 CFU/ml and 21400000 CFU/ml
[2]; intact epithelium
  Chemosis: 1.5 (2×) and 1.0
  Conj.: 1.5
  Corneal Edema: 1.0 (2×) and 0.5
  Corneal Infiltrate: 2.0 (2×) and 1.5
  Discharge: 1.5 (2×) and 1.0
  Iritis: 1.5 (2×) and 2.0
  Total Score: 9.0 and 7.0 and 9.5
[2]; [5]
  Total Ocular Score, Mean: 8.500
  Total Ocular Score, Median: 9.000
[2]; [6]
  Total Ocular Score, Mean: 9.000
  Total Ocular Score, Median: 9.250
[2]; Ker-3, intact epithelium
  Total Ocular Score: 10.0 (2×) and 8.5
[2]; Ker-4, intact epithelium
  Total Ocular Score: 9.0 and 7.0 and 9.5
